Target: T1, catalytic domain of MMP-13 enzyme (Homo sapiens, UniProt P45452)
T1 construct: 10 μL of a 50 nM stock solution of catalytic domain of MMP-13 enzyme (produced by Alantos) is added; made in house
Experiment: Assay for determining MMP-13 inhibition (fluorescent substrate)
Format: biochemical
Details: Table 1, Summary of MMP-13 Activity for Compounds of Formula I
Method: The MMP-13 inhibiting activity of the MMP-13 inhibiting compounds of the present invention may be measured using any suitable assay known in the art. A standard in vitro assay for MMP-13 inhibiting activity is described in Example 3000.
The typical assay for MMP-13 activity is carried out in assay buffer comprised of 50 mM Tris, pH 7.5, 150 mM NaCl, 5 mM CaCl2 and 0.05% Brij-35. Different concentrations of tested compounds are prepared in assay buffer in 50 μL aliquots. 10 μL of a 50 nM stock solution of catalytic domain of MMP-13 enzyme (produced by Alantos) is added to the compound solution. The mixture of enzyme and compound in assay buffer is thoroughly mixed and incubated for 10 min at room temperature. Upon the completion of incubation, the assay is started by addition of 40 μL of a 12.5 μM stock solution of MMP-13 fluorescent substrate (Calbiochem, Cat. No. 444235). The time-dependent increase in fluorescence is measured at the 320 nm excitation and 390 nm emission by automatic plate multireader. The IC50 values are calculated from the initial reaction rates.

Cc1cc(CNC(=O)c2cc(NS(=O)(=O)Cc3ccc(-c4nn[nH]n4)cc3)ncn2)ccc1F
IC50: < 1 µM

O=C(NCc1ccc(-c2nnn[nH]2)cc1)c1cc(NS(=O)(=O)Cc2ccccc2)ncn1
IC50: > 0.005 µM

CC(C(=O)Nc1cc(C(=O)NCc2ccc(F)cc2)ncn1)c1ccc(-c2nnn[nH]2)cc1 (centres unmarked)
IC50: > 0.005 µM

N#Cc1ccc(CC(=O)Nc2cc(C(=O)NCc3ccc(F)cc3)ncn2)cc1
IC50: < 1 µM

CC(C)(C(=O)Nc1cc(C(=O)NCc2ccc(F)cc2)ncn1)c1ccc(-c2nnn[nH]2)cc1
IC50: < 1 µM

O=C(Cc1ccc2c(c1)CCO2)Nc1cc(C(=O)NCc2ccc(-c3nnn[nH]3)cc2)ncn1
IC50: < 1 µM

CS(=O)(=O)c1ccc(CC(=O)Nc2cc(C(=O)NCc3ccc(-c4nnn[nH]4)cc3)ncn2)cc1
IC50: > 0.005 µM

N#Cc1ccc(CNC(=O)c2cc(NC(=O)Cc3ccc4c(c3)OCO4)ncn2)cc1
IC50: < 1 µM
